In patent publication US8193175B2, “Ruthenium complexes for treating cancers” (Universite de Strasbourg, priority 2004, dated 2012):

Experiments:
RDM4 line = test: Proliferation test (UptiBlue) on RDM4 line; type: cell-based, mouse; settings: 72 hours
Procedure: (§1) The products are tested on different cell lines. The cells used are RDM4 from a murine T lymphoma and a MOLT-4 line originating from an acute lymphoblastic leukemia. These cancer lines both express the p53 protein, unlike the HL-60 cells from a human promyelocytary leukemia where, following deletion of its gene, p53 is absent.
(§2) All of these cells are cultivated in RPMI 1640-Glutamax, supplemented by 10% calf foetal serum heat inactivated at 56° C. for 30 minutes, 1 mM sodium pyruvate, 1 mM non-essential amino acids and 50 μg/mL gentamycine (Life Technologies, Cergy Pontoise, France). The cultures are kept in an incubator at 37° C. with a moisture saturated atmosphere, with 5% CO2.
(§3) This test uses the UptiBlue reagent (Interchim, Montluçon, France), metabolised by the living cells. The cells are incubated on plates with 96 wells with 10^4 cells/well (200 μL) with the product and cultivated for 72 hours. Then, 20 μL UptiBlue are added to each well. After 3 hours incubation, the fluorescence of the samples contained in the plates is measured at 590 nm (excitation at 560 nm), using a Fluorolite 1000 microplate reader (Dynex technologies, Issy-Les-Moulineaux, France).
The potential anti-cancers are first of all selected on the RDM4 line. The effect of the different organo-ruthenium compounds upon the cell viability is firstly determined by a proliferation test as a function of the product concentration. The activity of the compounds derived from Ru is compared to that of cisplatinum. The exposure of the RDM4 cells to these derivatives is translated by a dose-dependent reduction in their proliferation. Therefore, the effect is dependent upon the organic complex which surrounds the Ru nucleus. The inhibition concentration of the growth of 50% of the cells (IC50) is determined for each of the products. […] The ruthenium derivatives showing an excessive IC50 (>50 μM) were eliminated from the biological study.

NH32 = test: Proliferation test (UptiBlue) on NH32; type: cell-based, human; settings: 72 hours, unit inferred
Procedure: The influence of the p53 protein upon the effects induced by the products was determined by using the human lymphoblastoid line TK6 (p53 wild-type) and its NH32 variant of which the p53 gene was totally inactivated by double homologous recombination (Chuang et al, 1999). The TK6 cells originate from the American Tissue Culture Collection (ATGC, Manassas, Va., USA). The NH32 cells were supplied by H. L. Liber (Chuang et al, 1999).
as §2
as §3, with “France). […]” for “France).”

MOLT-4 = test: Proliferation test (UptiBlue) on MOLT-4; type: cell-based, human; settings: 72 hours, UptiBlue; unit inferred; read-out: IC50 (Molt-4)
Procedure: as §1, §2
as §3, with “France). […]” for “France).”

WTK1 = test: Proliferation test (UptiBlue) on WTK1; type: cell-based, human; settings: 72 hours, unit inferred
Procedure: as §2, §3
(§4) Compound 9 on other cell lines gives the following IC50: • 9 (NH32):3; 9 (Molt-4):3.8; 9 (WTK1): 3; 9 (U-937): 3. • RDM4: lymphoma, mouse AKR • TK6: human lymphoblastoid line • NH32: TK6 variant, not expressing p53 (“p53 knock-out”) • WTK1: other TK6 variant, expressing a p53 mutated gene • MOLT-4: human T lymphoblastic leukemia • U-937: human promonocyte leukemia Proliferation Test for the RDM4 Line with each Compound

U-937 = test: Proliferation test (UptiBlue) on U-937; type: cell-based, human; settings: 72 hours, unit inferred
Procedure: as §2, §3, §4

RDM4 [1] = test: Apoptosis by marking with Annexin-V on RDM4; type: cell-based, mouse
Procedure: Cell death is measured by a first specific marking of the apoptosis. The externalisation of the anionic phospholipids, normally located on the inner layer of the plasmic membrane, is one of the precocious markers of apoptosis (Martin et al, 1996). Annexin-V is a protein which fixes specifically onto the phosphatidylserines in the presence of calcium. When Annexin-V is coupled to a fluorochrome, it makes it possible to quantify the apoptotic cells by flux cytometry.
The control cells are treated with the equivalent volume of solvent (ethanol). […] After 72 hrs, the apoptosis rate is still as low as that of the control cells. On the other hand, with treatment at 45 μM, this rate already reaches 70% at 24 hrs and exceeds 99% after 48 hrs—a sign of significant apoptosis induction.

RDM4 [2] = test: DNA fragmentation by marking with propidium iodure on RDM4; type: cell-based, mouse
Text: A second specific marking of apoptosis is the fragmentation of DNA between the nucleosomes. The fragmented DNA is located in the apoptotic bodies in the terminal phase of apoptosis. This DNA is hypodiploid and so less in quantity than that present in normal cells. It can be quantified by flux cytometry after permeabilisation of the cell membranes and marking with PI. The quantity of DNA in a normal cell is 2n in the G0/G1 phase and 4n in the G2 phase. Therefore, the sub-G0 DNA in a quantity of less than 2n has a weaker fluorescence intensity.
This phenomenon tends to diminish after 48 hrs of treatment. On the other hand, when the cells are treated with 45 μM, the formation of hypodiploid particles, visualised by the sub-G0 DNA content, is less than 10% at 24 hrs and exceeds 50% at 48 hrs such as to reach 60% at 72 hrs. […] The quantity of hypodiploid particles in the control cells remains less than 4% over this same period.

[3] = tested on: A172, HS683, N2A, and SH5Y; test: MTT test on glioblastoma and neuroblastoma lines; type: cell-based, human; settings: 48 hrs treatment; compared with cisplatinum
Procedure: FIG. 1: The A172 cells were cultivated on plates with 96 wells in DMEM medium with 10% calf serum. At 30% confluence, the cells were treated for 48 hrs with cisplatinum or the various compounds derived from ruthenium in the concentrations indicated (1, 5, 15, 50 μM). The quantity of cells present in the wells was evaluated by an MTT (MTT, Sigma) test of which the products of the reaction are quantified with an Elisa plate reader (Metertech, USA) (490-650 nm). The results obtained were related to the values of the control condition (100% viability). The graphs show an average of 8 points with the typical spacings over one experiment representative of 4 carried out. The thick black line indicates the IC50 for each graph.
TABLE 2: a summary of the results obtained on various cell lines and primary glial cultures. The experiments were carried out under the same conditions as those described for the A172 cells. Each IC50 is an indicative value obtained over 4 independent experiments.
(§5) The first step towards characterising the anticancerous effects of the compounds derived from ruthenium consists of testing their activity on tumoral lines kept in culture and comparing these effects on lines which have different characteristics as regards resistance to the anticancer treatments. Two lines of human glioblastomas (A172, HS683) and two lines of neuroblastomas (N2A and SH5Y) were used in order to test the cytostatic effects of the compounds according to the invention. Cisplatinum was chosen as the cytotoxic comparison agent. In a first approach, an MTT test was used to measure the activity of a mitochondrial enzyme, and this gives an estimate of the number of cells. Then, the cytotoxic effects of the compounds according to the invention were characterised in greater detail by analysing the morphology of the nucleus and the activation of caspase 3—two markers of cell apoptosis.

A172 glioblastoma cells = test: Nucleus morphology and caspase 3 activation in A172 cells; type: cell-based, human; settings: for nuclear condensation and fragmentation: 48 hrs treatment
Text: FIG. 2: A—The A172 cells were cultivated on glass slides. […] The cells were then fixed in 4% paraformaldehyde, permeabilised with 0.1% NP40 and marked with Hoechst dye (blue) and the anti-p20 antibody (active fragment of caspase 3, in red). The cells were then observed under the fluorescence microscope. B—Graphic representation of the number of cells with an apoptotic, fragmented or condensed nucleus. The bars are an average of two slides from one experiment representative of 3 carried out. C—In parallel, proteic extracts were prepared from cells treated with various drugs (cisplatinum 15 μM; CDR225 μM; CDR615 μM; CDR915 μM) and following denaturation the extracts were deposited on a !0% SDS-Page gel. After migration, the proteins were transferred onto nitrocellulose (Biorad, 0.2 μm) and the p20 fragment of the caspase 3 was detected by Western blot with an anti-p20 antibody (1/1000, R&D System).
as §5

CC#N.CC#N.CC#N.CP(C)c1ccccc1.F[P-](F)(F)(F)(F)F.[Ru+][c]1ccccc1-c1ccccn1 [Compound 9, [Ru (C6H4-2-C5H4N) (PMe2Ph) (NCMe)3]PF6]
IC50 (RDM4 line): 12 µM | IC50 (NH32): 3 µM | IC50 (MOLT-4): 3.8 µM | IC50 (WTK1): 3 µM | IC50 (U-937): 3 µM | apoptosis rate (Annexin-V) (RDM4 [1]; 15 μM, up to 72 hrs): does not shown any effect | apoptosis rate (Annexin-V) (RDM4 [1]; 45 μM, 24 hrs): 70% | cell cycle distribution (propidium iodure) (RDM4 [2]; 15 μM, first two days): accumulation in the G0/G1 phase | hypodiploid particles (sub-G0 DNA content) (RDM4 [2]; 45 μM, 72 hrs): 60% | reduction of the number of tumoral cells (MTT) [3]: at a concentration similar to or lower than that of cisplatinum | nuclear condensation and fragmentation (A172 glioblastoma cells): induce nuclear condensation and fragmentation characteristic of apoptosis | proteic levels of the active fragment of caspase 3 (Western blot) (A172 glioblastoma cells; cisplatinum 15 μM, CDR6 15 μM, CDR9 15 μM): increasing the proteic levels of the active fragment of caspase 3

CC#N.CC#N.Cc1ccnc(-c2cc(C)ccn2)c1.F[P-](F)(F)(F)(F)F.[Ru+][c]1ccccc1-c1ccccn1 [Compound 12, [Ru(C6H4-2-C5H4N)(4,4′-dimethyl-2,2′-bipyridine)(NCMe)2]PF6]
IC50 (RDM4 line): 9 µM | reduction of the number of tumoral cells (MTT) [3]: at a concentration similar to or lower than that of cisplatinum | nuclear condensation and fragmentation (A172 glioblastoma cells): induce nuclear condensation and fragmentation characteristic of apoptosis

CC#N.CC#N.CN(C)Cc1cccc[c]1[Ru+].F[P-](F)(F)(F)(F)F.c1ccc(-c2ccccn2)nc1 [Compound 13, [Ru-2-(CH2NMe2)—C6H4-(bipy) (NCMe)2]PF6]
IC50 (RDM4 line): 11 µM
